For data set [1] the following is noted: from CO[C@](C)(C[C@@H](C)CN(C)[C@H](CO)CNC(=O)OCc1ccccc1)[C@H](O[C@@H]1O[C@H](C)C[C@H](N(C)C)[C@H]1OC(=O)c1ccccc1)[C@@H](C)C1=C(C)C(=O)OC(C)(C)O1; ester bond; chlorobenzene; 4.0 mM; 165.0 °C; 20.0 h.
In another data set the test system is S. aureus MP-12. Briefly: microbe, parasite or virus in culture. The following applies: Staphylococcus aureus, MP12, read-out: MIC S. aureus MP-12. Type of data set: cell-based.
Another data set has as its system E. coli MP-4. Briefly: MIC determination by CLSI broth dilution, E. coli MP-4. The following applies: Escherichia coli, MP4, CLSI broth dilution; strain MP-4. Type of data set: cell-based. On the technique in general: In broth dilution the organism is exposed to a series of concentrations in liquid medium.
The next data set concerns K. pneumoniae MP-546. Put plainly: MIC determination by CLSI broth dilution, K. pneumoniae MP-546. The following applies: Klebsiella pneumoniae, MP546, CLSI broth dilution; strain MP-546. Type of data set: cell-based.
The subject of the next data set is K. pneumoniae MP-648. Put plainly: MIC determination by CLSI broth dilution, K. pneumoniae MP-648. The following applies: Klebsiella pneumoniae, MP648, CLSI broth dilution; strain MP-648. Type of data set: cell-based.
The next data set concerns P. aeruginosa MP-3. Briefly: MIC determination by CLSI broth dilution, P. aeruginosa MP-3. Type of data set: cell-based. The following applies: Pseudomonas aeruginosa, MP3, strain MP-3.
The test system of the next data set is A. baumannii MP-15. Put plainly: MIC determination by CLSI broth dilution, A. baumannii MP-15. The class given is cell-based. The following applies: Acinetobacter baumannii, MP15, strain MP-15, read-out: MIC A. baumanii MP-15.

Each structure is given as a SMILES string. Values after ≈ are worked out from the molar mass of the structure shown.

Compound `CO[C@]1(C)C[C@@H](C)CN(C)[C@@H](CNC(=O)OCc2ccccc2)COC(=O)C(C)C(=O)[C@H](C)[C@H]1O[C@@H]1O[C@H](C)C[C@H](N(C)C)[C@H]1OC(=O)c1ccccc1` (stereo partly shown) yielded a ring closure, yield of all isomers in data set [1] of 82%.

In the case of `CO[C@]1(C)C[C@@H](C)CN(C)[C@H](CCCN2CCCC2)COC(=O)C(C)(C)C(=O)[C@H](C)[C@H]1O[C@@H]1O[C@H](C)C[C@H](N(C)C)[C@H]1O` [Compound 161, (3R,6R,8R,9R,10R)-9-(((2S,3R,4S,6R)-4-(dimethylamino)-3-hydroxy-6-methyltetrahydro-2H-pyran-2-yl)oxy)-8-methoxy-4,6,8,10,12,12-hexamethyl-3-(3-(pyrrolidin-1-yl)propyl)-1-oxa-4-azacyclotridecane-11,13-dione], the MIC in the data set on S. aureus MP-12 was below 4 µg/mL; in the data set on E. coli MP-4, below 4 µg/mL; with K. pneumoniae MP-546 it was below 4 µg/mL; in the data set with K. pneumoniae MP-648, below 4 µg/mL; in the data set on P. aeruginosa MP-3, 4 to 32 µg/mL (≈ 6.54 to 52.3 µM); with A. baumannii MP-15, above 32 µg/mL.

Turning to `CO[C@]1(C)C[C@@H](C)CN(C)[C@@H](CCCN(C)C(C)(C)C)COC(=O)C(C)(C)C(=O)[C@H](C)[C@H]1O[C@@H]1O[C@H](C)C[C@H](N(C)C)[C@H]1O` [Compound 7, (3S,6R,8R,9R,10R)-3-(3-(tert-butyl(methyl)amino)propyl)-9-(((2S,3R,4S,6R)-4-(dimethylamino)-3-hydroxy-6-methyltetrahydro-2H-pyran-2-yl)oxy)-8-methoxy-4,6,8,10,12,12-hexamethyl-1-oxa-4-azacyclotridecane-11,13-dione], the MIC in the data set on S. aureus MP-12 was 4 to 32 µg/mL (≈ 6.37 to 51 µM); against E. coli MP-4, below 4 µg/mL; in the data set with K. pneumoniae MP-546, 4 to 32 µg/mL (≈ 6.37 to 51 µM); against K. pneumoniae MP-648 it was below 4 µg/mL; against P. aeruginosa MP-3 it was above 32 µg/mL; in the data set on A. baumannii MP-15 it was above 32 µg/mL.

For `CCN1C[C@H](C)C[C@@](C)(OC)[C@H](O[C@@H]2O[C@H](C)C[C@H](N(C)C)[C@H]2O)[C@@H](C)C(=O)C(C)(C)C(=O)OC[C@@H]1CCCN1CCCCC1` [Compound 129, (3S,6R,8R,9R,10R)-9-(((2S,3R,4S,6R)-4-(dimethylamino)-3-hydroxy-6-methyltetrahydro-2H-pyran-2-yl)oxy)-4-ethyl-8-methoxy-6,8,10,12,12-pentamethyl-3-(3-(piperidin-1-yl)propyl)-1-oxa-4-azacyclotridecane-11,13-dione], the MIC in the data set on S. aureus MP-12 is 4 to 32 µg/mL (≈ 6.25 to 50 µM); in the data set with E. coli MP-4, below 4 µg/mL; against K. pneumoniae MP-546, below 4 µg/mL; in the data set with K. pneumoniae MP-648, below 4 µg/mL; against P. aeruginosa MP-3, above 32 µg/mL; in the data set with A. baumannii MP-15, above 32 µg/mL.

Take `CCCCCCCN1CCC(C[C@@H]2COC(=O)C(C)(C)C(=O)[C@H](C)[C@@H](O[C@@H]3O[C@H](C)C[C@H](N(C)C)[C@H]3O)[C@](C)(OC)C[C@@H](C)CN2C)CC1` [Compound 56]: the MIC in the data set on S. aureus MP-12 is 4 to 32 µg/mL (≈ 5.75 to 46 µM); against E. coli MP-4, below 4 µg/mL; in the data set on K. pneumoniae MP-546, below 4 µg/mL; with K. pneumoniae MP-648 it was below 4 µg/mL; against P. aeruginosa MP-3, above 32 µg/mL; in the data set on A. baumannii MP-15 it was above 32 µg/mL.

For `CO[C@]1(C)C[C@@H](C)CN(CC(C)C)[C@@H](CCCN2CCCCC2)COC(=O)C(C)(C)C(=O)[C@H](C)[C@H]1O[C@@H]1O[C@H](C)C[C@H](N(C)C)[C@H]1O` [Compound 121, (3S,6R,8R,9R,10R)-9-(((2S,3R,4S,6R)-4-(dimethylamino)-3-hydroxy-6-methyltetrahydro-2H-pyran-2-yl)oxy)-4-isobutyl-8-methoxy-6,8,10,12,12-pentamethyl-3-(3-(piperidin-1-yl)propyl)-1-oxa-4-azacyclotridecane-11,13-dione], the MIC in the data set on S. aureus MP-12 is 4 to 32 µg/mL (≈ 5.99 to 47.9 µM); with E. coli MP-4 it was below 4 µg/mL; against K. pneumoniae MP-546, 4 to 32 µg/mL (≈ 5.99 to 47.9 µM); in the data set on K. pneumoniae MP-648, 4 to 32 µg/mL (≈ 5.99 to 47.9 µM); in the data set on P. aeruginosa MP-3, above 32 µg/mL; in the data set on A. baumannii MP-15, above 32 µg/mL.

These data come from patent US12552825B2 (Zikani Therapeutics, Inc., priority 2019, dated 2026).
